From PMC4780071, “Discovery of a Biological Mechanism of Active Transport through the Tympanic Membrane to the Middle Ear” (Scientific Reports, 2016)

Experiments:
[1] = system: tympanic membrane (TM) of rats with active bacterial OM; assay: Comparative TM transit of individual phage clones in vivo (plaque assay of ME fluid); design: species or system rat (male Sprague-Dawley), NTHi-induced OM; conditions: for phage particles in the ME after 1 hr incubation of the peptide-phage on the TM: 10^10 PFUs applied, mean of six animals; for TM-transit rate into the ME compared with WT phage and the other clones: phage clone displaying the peptide, 1 × 10^10 phage particles on one TM for 1 hr, six rats, plaque assay of ME fluid
Protocol: (§1) All animal experiments were performed in strict accordance to the Guide for the Care and Use of Laboratory Animals of the National Institutes of Health (NIH) and the policies of the Veterans Affairs San Diego Healthcare Systems, CA. Experiments were carried out in strict accordance with an approved Institutional Animal Care and Use Committee (IACUC) protocol. Male Sprague–Dawley rats were purchased from The Jackson Laboratory. The animals were anesthetized with an intraperitoneal injection of 1.0–1.5 ml per 200–300 g bodyweight of rodent cocktail (40 mg/Kg Ketamine, 10 mg/Kg Xylasine, and 0.75 mg/Kg Acepromazine). The skin of the neck was shaved and treated with Povidone antiseptic solution. OM was induced by infecting the ME with nontypeable Haemophilus influenzae (NTHi) in a laboratory setting by surgically exposing the bulla via a ventral approach through a vertical midline incision made in the neck. A 25-gauge needle was used to fenestrate the bulla and inject ~50 μL saline solution containing 10^4 CFU/mL NTHi bacteria strain 3655 (biotype II, originally isolated from the ME of a pediatric OM patient). Following the inoculation, the opening was closed and incision was stapled. The TMs were visually confirmed to be intact after surgery and the rats were given Lactated Ringer’s solution and buprenorphine subcutaneously postoperatively. For in vivo phage display experiments, rats were used at two days post NTHi inoculation. The ears were examined otoscopically at this time to confirm signs of active infection and the presence of fluid in the ME cavity.
After three or ten rounds of subtraction/selection in strategies 1 and 2 respectively, single blue plaques were selected at random for preparation of purified stocks and sequencing as recommended by the manufacturer (New England Biolabs, Cambridge, MA, USA). Phage transit efficiency was determined by incubating 1 × 10^10 PFUs (plaque-forming units) of specific phage over the TMs of rats in vivo for 1 hr. At least six animals per time point were used. Incubation, washings, and elution conditions were performed as above. The phage transiting efficiency was determined by comparing the number of plaque-forming phage recovered from the ME fluid (output) by the number of plaque-forming phage in the input (TM side).
We quantified the rate of TM transit into the ME for all peptides identified by Strategy 1 (Fig. 3A) and those from Strategy 2 (Fig. 3B) that appeared at a frequency of three or more in our sequenced sample (Tables 1 and 2). Individual phage clones were amplified and 1 × 10^10 phage particles were applied onto one TM of six anesthetized rats for 1 hr. The number of phage particles recovered from the ME was then compared to that observed for WT (untargeted) phage. […] On the other hand, the peptide sequence of BPT-4 was clearly distinct in the phylogeny analysis.

[2] = system: tympanic membrane (TM) of rats with OM; assay: Transport kinetics and saturation of TMT-3 phage in vivo; design: species or system rat (male Sprague-Dawley), NTHi-induced OM; conditions: for phage recovery from the ME: at least six animals per time point
Protocol: as §1
The phage peptide with one of the highest transport capacities measured above TMT-3 SADSTKTTHLTL, was selected for further transport specificity, kinetics and competitive binding assays. To evaluate the kinetics of transport of the TMT-3 single phage clone, a TMT-3 phage preparation was incubated on the TM over a 1, 2 or 4 hr time period at 1 × 10^10 PFU concentration. At least six animals per time point were used. Incubation, washing, and elution conditions were performed as above in rats with OM. The level of phage transport was evaluated by determining the titer (PFUs) of TMT-3 phage present in the ME fluid. To assess transport saturation, the recovery of TMT-3 phage from the ME was compared following application of 10^10 versus 10^12 phage particles to the TM for 1 hr. The corresponding free peptide SHSADSTKTTHLTLGGG was synthesized by Genscript (Piscataway, NJ, USA) in addition to an untargeted randomized control peptide SHDLSTSATLTHTKGGG (Genscript, Piscataway, NJ, USA) at purity >95%. All peptides were reconstituted in PBS pH, 7.2. For the competition assay TMT-3 phage application to the TM was performed at titer of 10^10 PFUs, as above. However, 1 μM of free peptide was included with the phage.

[3] = system: healthy (uninfected) tympanic membrane; assay: TMT-3 phage transport across TMs of uninfected MEs; format: in vivo, rat; conditions: n = 6, data not shown
Source text: To establish the specificity of translocation, we assessed whether a synthetic TMT-3 peptide would interfere with internalization of corresponding peptide-bearing phage into the ME. […] In addition, TMT-3 phage was applied onto the TMs of uninfected MEs (n = 6). We observed that for healthy TMs, phage transport into the ME was quite limited when compared to the infected TM (data not shown). This could be attributed to limitations in efficient phage transport when fluid is not present on the other side of the TM. Alternatively, it is possible that the transit mechanism employed is only present in infected TMs.

[4] = system: TMs of ex vivo MEs from rats undergoing OM; assay: Ex vivo ME transport: dependence on time after death and temperature; design: species or system rat; conditions: for phage recovery through ex vivo TMs: warmed to 37 °C, 1 hr with phage
Protocol: In order to learn more about the pharmacokinetics mechanisms of transport, we tested the effect of varying metabolism or temperature on transport rates. […] MEs were removed intact from deeply anesthetized rats undergoing OM as described above. […] Translocation is also temperature dependent. […] It is well known that endocytosis is inhibited at 4 °C[36][37].

Sequence	phage particles in the ME after 1 hr incubation of the peptide-phage on the TM ([1]; 1 hr, rats with OM)	TM-transit rate into the ME compared with WT phage and the other clones [1]	other results
DVGAGRWFSDNG [TMT-4]	more than 2 × 10^3 phage particles	highest rates of transport	
SADSTKTTHLTL [TMT-3, transport tests used the phage clone]	more than 2 × 10^3 phage particles	highest rates of transport	recovery from the ME among the six positive phage clones ([1]; 10^10 PFUs, 1 hr, rats with OM): greatest recovery from the ME; dependence of phage recovery on time on the TM ([2]; 1, 2 and 4 hrs of contact with the infected TM, 1 × 10^10 PFU): exponential increase; dependence of phage recovery on the amount applied (saturation) ([2]; 10^10 versus 10^12 phage particles applied to the TM for 1 hr): increased proportionally with concentration; phage recovery from the ME ([2]; 1 hr of contact with the infected TM, 1 × 10^10 PFU): approximately 10^4 phage particles; phage recovery from the ME ([2]; 4 hrs of contact with the infected TM, 1 × 10^10 PFU): ~10^6 phage particles; phage transport into the ME through healthy TMs compared to the infected TM [3]: quite limited; ME recovery of phage ex vivo ([4]; 4 °C, 1 hr exposure of the TM to 10^10 PFUs): severely compromised; phage recovery through ex vivo TMs ([4]; TMs stored 12 hrs postmortem at 4 °C): No recovery; phage recovery through ex vivo TMs ([4]; TMs stored 24 hrs postmortem at 4 °C): No recovery
SDDSRPIAQFAI [TMT-5]		highest rates of transport	
TFNPPPPQMPST [BPT-4]	more than 2 × 10^3 phage particles	highest rates of transport	
THPSTKVPGTPA [BPT-3]	more than 2 × 10^3 phage particles	highest rates of transport	
TLSPKMPGGGYW [TMT-2]	more than 2 × 10^3 phage particles	highest rates of transport	
